From US5955082A, “Insecticidal factor from field peas” (Her Majesty the Queen in right of Canada, as represented by …, priority 1997, dated 1999) come the findings set out here.

One experiment relates to S. oryzae. In words: Wheat flour disk feeding bioassay of lectins and trypsin inhibitors. It is filed as in vivo. The following applies: for Feeding Rate (% of Control): 1% w/w in wheat flour disk; for Activity against S. oryzae: native form, 1% w/w. The procedure: Lectins and trypsin inhibitors shown in Table 20 were assayed in their native form to determine their activity against S. oryzae in the wheat flour disk bioassay.

The test system of the next experiment is rice weevil. In words: Flour disk feeding bioassay. It is filed as in vivo, Sitophilus oryzae (L.). As to the method:
The rice weevil [Sitophilus oryzae (L.)] was used for all bioassays. One ml of an aqueous solution containing test material was mixed with 200 mg wheat flour. Distilled water was used as a control. Approximately 100 μl of the stirred suspension were removed and placed in the bottom of a polystyrene Petri dish, and allowed to air dry overnight at room temperature to produce the flour disks. The disks were equilibrated at 30±1° C. and 70±5% r.h. for 24 hr to stabilize the moisture content. Individual weighed disks and 5 adult beetles (1 to 7 days old, starved for 24 hrs before use) were transferred to petri dishes and kept at 30±1° C. and 70±5% r.h. for 4 days (5 replicates) before the remains of the flour disk were weighed.
Saponins, characterized by their bitter taste, foaming in aqueous solutions and haemolytic activity, are a diverse group of secondary plant metabolites containing a carbohydrate moiety (mono- or oligosaccharide) attached to either a steroid (C27) or a triterpenoid (C30). Saponins are reported to have insecticidal activity. Saponin extractions were prepared from the seeds of commercial peas (Pisum sativum). Approximately 100 g seeds were milled with a Stein mill for 5 minutes and 10 g flour was extracted with 1000 ml chloroform for 16 hrs in a Soxhlet extractor to remove pigments and lipids. Three hundred mg air-dried defatted flour was refluxed for 5 min with 60 ml 80% MeOH, then transferred to a centrifuge tube with 2×5 ml 80% MeOH rinse. The slurry extracts were centrifuged at 10,000 rpm for 10 min. The pellet was dried at room temperature for testing the residual insecticidal activities and the supernatant was evaporated to 7-8 ml under reduced pressure in a rotary evaporator at 37° C. The solution and additional 3 ml distilled water rinse were applied to a reverse phase C18 cartridge (Sep Pak, C18). The column was washed with 3×5 ml 30% MeOH then eluted with 4×5 ml MeOH. The MeOH elute was evaporated to dryness in a rotary evaporator, and then dissolved in 6 ml distilled water (at a concentration equivalent to 50 mg defatted flour per ml). This extract was used for bioassay.
One ml saponin extract (50 mg equivalent/ml) was loaded on ion exchange columns (2 ml volume) with Dowex AG-SOW [H^+ ] and Dowex AG-1 [Cl^- ] respectively. The columns were eluted with 10 ml distilled water. The water elute was evaporated to dryness in a rotary evaporator, and then dissolve in 1 ml distilled water. The water fractions were used for HPLC analysis and bioassay.
The bioassays were as described in the preceding example.

Regarding Concanavalin A, in the experiment with S. oryzae, the “Feeding Rate (% of Control)” value came to 82.5% and the “Activity against S. oryzae” value is given as “weakly active”.
As to `CC1OC(OC2C(OC3C(OC4CCC5(C)C(CCC6(C)C5CC=C5C7CC(C)(C)CC(O)C7(C)CCC56C)C4(C)CO)OC(C(=O)O)C(O)C3O)OC(CO)C(O)C2O)C(O)C(O)C1O` (centres unmarked) [Soyasaponin I], the Food consumption in the experiment with rice weevil (0.63 mg/g) is recorded as 0.52 mg/day/insect; in the experiment with rice weevil (1.25 mg/g), 0.44 mg/day/insect; in the experiment with rice weevil (2.50 mg/g), 0.43 mg/day/insect; with rice weevil (5.00 mg/g), 0.46 mg/day/insect; in the experiment on rice weevil (10.0 mg/g), 0.51 mg/day/insect. For the same molecule, the “Food consumption, % of control” value with rice weevil (0.63 mg/g) is given as 99.8%; in the experiment with rice weevil (1.25 mg/g), 84.2%; with rice weevil (2.50 mg/g), 82.8%; in the experiment with rice weevil (5.00 mg/g) it was 88.4%; with rice weevil (10.0 mg/g), 97.9%. In addition, the “Activity against the test insect” value with rice weevil (~0.6 mg/g and up to 10 mg/g) is “not active”.
Take Soybean trypsin inhibitor: in the experiment with S. oryzae, the “Feeding Rate (% of Control)” value is 98.7% and the “Activity against S. oryzae” value was “inactive”.

B1: Pea lectin: pea lectin, native form (protein, UniProt P02867 31-217; P02867 218-275, looked up)
Lectin beta chain: TETTSFLITKFSPDQQNLIFQGDGYTTKEKLTLTKAVKNTVGRALYSSPIHIWDRETGNVANFVTSFTFVINAPNSYNVADGFTFFIAPVDTKPQTGGGYLGVFNSAEYDKTTQTVAVEFDTFYNAAWDPSNRDRHIGIDVNSIKSVNTKSWKLQNGEEANVVIAFNAATNVLTVSLTYPNSLEEEN
Lectin alpha chain: VTSYTLSDVVSLKDVVPEWVRIGFSATTGAEYAAHEVLSWSFHSELSGTSSSKQAADA
For the molecule B1, in the experiment on S. oryzae, the “Feeding Rate (% of Control)” value stood at 71.4% and the “Activity against S. oryzae” value was “weakly active”.
